Measurements taken from patent publication US7816353B2 (Exelixis, Inc., priority 2003, dated 2010).

Assays:
Format in all cases: biochemical
p70S6K = biological target: T1, p70S6K (Homo sapiens, UniProt P23443, T412E); assay: p70S6 Kinase Assay (Luciferase-Coupled Chemiluminescent Kinase assay, LCCA); settings: human p70S6 kinase domain residues 1-421, T412E; 5 μM ATP; read-out: p70S6K IC50
T1 construct: human p70S6 kinase domain residues 1-421, containing a T412E mutation; made in house
How it was run: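 Luciferase-coupled chemiluminescence measured percent ATP remaining after the 2 h kinase reaction at ambient temperature, with ATP near the kinase's KM. Ten inhibitor concentrations were tested. IC50 was obtained from a Hill-equation fit.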

Akt1 = biological target: T2, Akt1 (Homo sapiens, UniProt P31749); assay: Akt1 Kinase Assay (Luciferase-Coupled Chemiluminescent Kinase assay, LCCA); settings: human Akt1 kinase domain residues R144-A480, activated with PDK1; 1 μM ATP; read-out: Akt-1 IC50
T2 construct: made in house
T2 sequence (P31749 144-480): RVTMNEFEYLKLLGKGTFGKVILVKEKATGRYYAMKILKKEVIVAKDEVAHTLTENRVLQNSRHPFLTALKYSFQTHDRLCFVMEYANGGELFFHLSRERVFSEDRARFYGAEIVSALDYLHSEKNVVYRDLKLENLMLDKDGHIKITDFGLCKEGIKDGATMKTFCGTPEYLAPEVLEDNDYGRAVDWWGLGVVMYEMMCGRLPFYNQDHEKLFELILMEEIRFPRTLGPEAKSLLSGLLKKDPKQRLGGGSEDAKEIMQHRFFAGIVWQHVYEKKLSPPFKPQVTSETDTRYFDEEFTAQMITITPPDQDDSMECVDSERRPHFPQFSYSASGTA
Protocol: (§1) Kinase activity and compound inhibition are investigated using one or more of the three assay formats described below. The ATP concentrations for each assay are selected to be close to the Michaelis-Menten constant (KM) for each individual kinase. Dose-response experiments are performed at 10 different inhibitor concentrations in a 384-well plate format. The data are fitted to four-parameter equation (2) below; where Y is the observed signal, X is the inhibitor concentration, Min is the background signal in the absence of enzyme (0% enzyme activity), Max is the signal in the absence of inhibitor (100% enzyme activity), IC50 is the inhibitor concentration at 50% enzyme inhibition and H represents the empirical Hill's slope to measure the cooperativity. Typically H is close to unity. Y=Min+(Max−Min)/(1+(X/IC50)^H) Equation (2) p70S6 Kinase Assay
Biochemical activity of Akt1 kinase was assessed using a Luciferase-Coupled Chemiluminescent Kinase assay (LCCA) format. Kinase activity was measured as the percent ATP remaining following the kinase reaction. Remaining ATP was detected by luciferase-luciferin-coupled chemiluminescence. Specifically, the reaction was initiated by mixing test compounds, 1 μM ATP, 5 μM crosstide peptide and 1.3 nM Akt1 (baculovirus expressed human Akt1 kinase domain residues R144-A480, activated with PDK1) in a 20 uL assay buffer (20 mM Tris-HCL pH 7.5, 10 mM MgCl2, 0.01% Triton X-100, 1 mM DTT, 3 mM MnCl2). The mixture is incubated at ambient temperature for 3 hours after which 20 μL luciferase-luciferin mix is added and the chemiluminescent signal read using a Wallac Victor2 reader. The luciferase-luciferin mix consists of 50 mM HEPES, pH 7.8, 8.5 μg/mL oxalic acid (pH 7.8), 5 (or 50) mM DTT, 0.4% Triton X-100, 0.25 mg/mL coenzyme A, 63 uM AMP, 28 μg/mL luciferin and 40,000 units/mL luciferase.

PDK1 = biological target: T3, PDK1 (Homo sapiens, UniProt O15530); assay: PDK1 Kinase Assay (Luciferase-Coupled Chemiluminescent Kinase assay, LCCA); settings: human PDK1 kinase domain residues M51-T359; 0.5 μM ATP; read-out: PDK-1 IC50
T3 construct: human PDK1 kinase domain residues M51-T359; made in house
T3 sequence (O15530 51-359): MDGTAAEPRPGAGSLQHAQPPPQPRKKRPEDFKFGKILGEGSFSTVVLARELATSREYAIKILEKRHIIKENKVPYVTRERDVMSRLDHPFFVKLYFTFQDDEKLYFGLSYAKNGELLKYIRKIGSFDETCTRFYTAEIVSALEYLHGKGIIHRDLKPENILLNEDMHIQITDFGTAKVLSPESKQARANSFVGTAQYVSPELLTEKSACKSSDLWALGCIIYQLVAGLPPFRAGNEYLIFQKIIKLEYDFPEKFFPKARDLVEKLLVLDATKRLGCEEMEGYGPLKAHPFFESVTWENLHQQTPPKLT
Protocol: as §1
Biochemical activity of PDK1 kinase was assessed using a Luciferase-Coupled Chemiluminescent Kinase assay (LCCA) format. Kinase activity was measured as the percent ATP remaining following the kinase reaction. Remaining ATP was detected by luciferase-luciferin-coupled chemiluminescence. Specifically, the reaction was initiated by mixing test compounds, 0.5 μM ATP, 0.6 μM PDKtide peptide and 6 nM PDK1 (baculovirus expressed human PDK1 kinase domain residues M51-T359) in a 20 uL assay buffer (20 mM Hepes pH 7.5, 1 mM CaCl2, 0.03% CHAPS, 2 mM DTT). The mixture is incubated at ambient temperature for 3 hours after which 20 μL luciferase-luciferin mix is added and the chemiluminescent signal read using a Wallac Victor2 reader. The luciferase-luciferin mix consists of 50 mM HEPES, pH 7.8, 8.5 μg/mL oxalic acid (pH 7.8), 5 (or 50) mM DTT, 0.4% Triton X-100, 0.25 mg/mL coenzyme A, 63 uM AMP, 28 μg/mL luciferin and 40,000 units/mL luciferase.

T1 sequence (P23443 1-421 T412E): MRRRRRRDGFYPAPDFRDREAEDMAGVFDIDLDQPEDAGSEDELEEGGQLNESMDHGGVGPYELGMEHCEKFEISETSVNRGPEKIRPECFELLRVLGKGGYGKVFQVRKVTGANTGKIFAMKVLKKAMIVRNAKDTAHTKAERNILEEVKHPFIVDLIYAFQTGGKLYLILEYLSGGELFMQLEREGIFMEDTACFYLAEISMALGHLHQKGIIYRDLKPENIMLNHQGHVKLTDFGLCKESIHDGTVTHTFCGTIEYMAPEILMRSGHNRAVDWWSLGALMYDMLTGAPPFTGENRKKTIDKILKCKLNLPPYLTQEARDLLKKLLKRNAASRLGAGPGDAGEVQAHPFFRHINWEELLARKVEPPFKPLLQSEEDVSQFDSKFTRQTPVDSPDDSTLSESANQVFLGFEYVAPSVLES

SMILES | IC50 (p70S6K) | IC50 (Akt1) | IC50 (PDK1)
CSc1nc(N)nc(N(C)[C@@H](C)C(=O)Nc2cc(OC(F)(F)F)ccc2OCCN(C)C)c1C#N [Example 134, N~2~-[2-amino-5-cyano-6-(methylthio)pyrimidin-4-yl]-N-{2-{[2-(dimethylamino)ethyl]oxy}-5-[(trifluoromethyl)oxy]phenyl}-N~2~-methyl-L-alaninamide] | < 50 nM | > 2000 nM | > 2000 nM
Nc1nc(Cl)c(C=O)c(SCC(=O)Nc2cccc(C(F)(F)F)c2)n1 [Example 43, 2-[(2-amino-6-chloro-5-formylpyrimidin-4-yl)thio]-N-[3-(trifluoromethyl)phenyl]acetamide] | 50 to 500 nM | > 2000 nM | 
Cc1nc(OCC(=O)Nc2cccc(C(F)(F)F)c2)c(C#N)c(C)c1[N+](=O)[O-] [Example 1, 2-[(3-cyano-4,6-dimethyl-5-nitropyridin-2-yl)oxy]-N-[3-(trifluoromethyl)phenyl]acetamide] | < 50 nM | > 2000 nM | > 2000 nM
CSc1nc(N)nc(N[C@H](CCCCN)C(=O)Nc2cccc(C(F)(F)F)c2)c1C#N [Example 195] | > 2000 nM | > 2000 nM | 
CSc1nc(N)nc(N(C)[C@@H](C)C(=O)Nc2cc(C(=O)NCCCN3CCN(C)CC3)cc(C(F)(F)F)c2)c1C#N [Example 131, 3-({N-[2-amino-5-cyano-6-(methylthio)pyrimidin-4-yl]-N-methyl-L-alanyl}amino)-N-[3-(4-methylpiperazin-1-yl)propyl]-5-(trifluoromethyl)benzamide] | < 50 nM | > 2000 nM | > 2000 nM
CNc1cc(COC(=O)Nc2cccc(C(F)(F)F)c2)nc(SC)n1 [Example 39, [6-(methylamino)-2-(methylthio)pyrimidin-4-yl]methyl [3-(trifluoromethyl)phenyl]carbamate] | < 50 nM | > 2000 nM | > 2000 nM
CSc1nc(N)nc(SCC(=O)Nc2ccc(C(F)(F)F)cn2)c1C#N [Example 4] | < 50 nM | > 2000 nM | > 2000 nM
CSc1nc(N)nc(N(C)[C@@H](C)C(=O)Nc2cc(C(=O)NCCN(C)C)cc(C(F)(F)F)c2)c1C#N [Example 130, 3-({N-[2-amino5-cyano-6-(methylthio)pyrimidin-4-yl]-N-methyl-L-alanyl}amino)-N-[2-(dimethylamino)ethyl]-5-(trifluoromethyl)benzamide] | < 50 nM | > 2000 nM | > 2000 nM
CSc1cc(COC(=O)Nc2cccc(C(F)(F)F)c2)nc(NCc2ccccc2)n1 [Example 38, {6-(methylthio)-2-[(phenylmethyl)amino]pyrimidin-4-yl}methyl [3-(trifluoromethyl)phenyl]carbamate] | < 50 nM | > 2000 nM | > 2000 nM
CSc1nc(N)nc(SCC(=O)Nc2nc(C)cs2)c1C#N [Example 25, 2-{[2-amino-5-cyano-6-(methylthio)pyrimidin-4-yl]thio}-N-(4-methyl-1,3-thiazol-2-yl)acetamide] | < 50 nM | > 2000 nM | > 2000 nM
CSc1nc(N)nc(N[C@@H](CCCNC(N)=O)C(=O)Nc2cccc(C(F)(F)F)c2)c1C#N [Example 147, N~5~-(aminocarbonyl)-N~2~-[2-amino-5-cyano-6-(methylthio)pyrimidin-4-yl]-N-[3-(trifluoromethyl)phenyl]-L-omithinamide] | 500 to 2000 nM | > 2000 nM | 
CSc1nc(N)nc(SCC(=O)Nc2nccs2)c1C#N [Example 27, 2-{[2-amino-5-cyano-6-(methylthio)pyrimidin-4-yl]thio}-N-1,3-thiazol-2-ylacetamide] | < 50 nM | > 2000 nM | > 2000 nM
CCOc1nc(N)nc(N[C@@H](C)C(=O)Nc2cc(C(=O)NCCN(C)C)cc(C(F)(F)F)c2)c1C#N [Example 160, 3-({N-[2-amino-5-cyano-6-(ethyloxy)pyrimidin-4-yl]-L-alanyl}amino)-N-[2-(dimethylamino)ethyl]-5-(trifluoromethyl)benzamide] | > 2000 nM | > 2000 nM | 
CCOc1nc(N)nc(N[C@@H](CCCNC(N)=O)C(=O)Nc2cccc(C(F)(F)F)c2)c1C#N [Example 194] | > 2000 nM | > 2000 nM | 
COC(=O)c1cc(NC(=O)[C@H](C)Nc2nc(N)nc(SC)c2C#N)cc(C(F)(F)F)c1 [Example 112, methyl 3-({N-[2-amino-5-cyano-6-(methylthio)pyrimidin-4-yl]-L-alanyl}amino)-5-(trifluoromethyl)benzoate] | > 2000 nM | > 2000 nM | 
CSc1ncc(C#N)c(NCC(=O)Nc2cccc(C(F)(F)F)c2)n1 [Example 100, N^2-[5-cyano-2-(methylthio)pyrimidin-4-yl]-N-[3-(trifluoromethyl)phenyl]glycinamide] | > 2000 nM | > 2000 nM | 
Nc1nc(NCC(=O)Nc2cccc(C(F)(F)F)c2)cc(N2CCOCC2)n1 | < 50 nM |  | > 2000 nM
CSc1nc(N)nc(N(CC(=O)Nc2cccc(C(F)(F)F)c2)CC2CCOCC2)c1C#N [Example 101, N^2-[2-amino-5-cyano-6-(methylthio)pyrimidin-4-yl]-N^2-(tetrahydro-2H-pyran-4-ylmethyl)-N-[3-(trifluoromethyl)phenyl]glycinamide] | > 2000 nM | > 2000 nM | 
CCOc1nc(N)nc(N(C)[C@@H](C)C(=O)Nc2cccc(OC(F)(F)F)c2)c1C#N [Example 172, N~2~-[2-amino-5-cyano-6-(ethyloxy)pyrimidin-4-yl]-N~2~-methyl-N-{3-[(trifluoromethyl)oxy]phenyl}-L-alaninamide] | > 2000 nM | > 2000 nM | 
CSc1nc(N)nc(SCC(=O)Nc2nc3ccccc3s2)c1C#N [Example 23, 2-{[2-amino-5-cyano-6-(methylthio)pyrimidin-4-yl]thio}-N-1,3-benzothiazol-2-ylacetamide] | < 50 nM | > 2000 nM | 
Nc1nc(Cl)cc(SCC(=O)Nc2cccc(C(F)(F)F)c2)n1 | 50 to 500 nM | > 2000 nM | 
CCOc1nc(N)nc(N[C@@H](CCCN)C(=O)Nc2cccc(C(F)(F)F)c2)c1C#N [Example 148, N~2~-[2-amino-5-cyano-6-(ethyloxy)pyrimidin-4-yl]-N-[3-(trifluoromethyl)phenyl]-L-omithinamide] | 500 to 2000 nM | > 2000 nM | 
CCOc1nc(N)nc(N[C@H](CCCCN)C(=O)Nc2cccc(C(F)(F)F)c2)c1C#N [Example 196, N~2~-[2-amino-5-cyano-6-(ethyloxy)pyrimidin-4-yl]-N-[3-(trifluoromethyl)phenyl]-D-lysinamide] | > 2000 nM | > 2000 nM | 
CSc1nc(N)nc(N[C@@H](CCCN)C(=O)Nc2cccc(C(F)(F)F)c2)c1C#N [Example 86, N^2-[2-amino-5-cyano-6-(methylthio)pyrimidin-4-yl]-N-[3-(trifluoromethyl)phenyl]-L-ornithinamide] | > 2000 nM |  | 
COC(=O)CC[C@H](Nc1nc(N)nc(SC)c1C#N)C(=O)Nc1cccc(C(F)(F)F)c1 [Example 146, methyl N~2~-[2-amino-5-cyano-6-(methylthio0pyrimidin-4-yl]-N-'-(trifluoromethyl)phenyl]-L-alpha-glutaminate] | 500 to 2000 nM |  | 
